Measured values reported in ChEMBL document CHEMBL4840337, “A Potent Fluorescent Reversible-Covalent Inhibitor of Cardiac Muscle Contraction” (ACS Med Chem Lett, 2021).
The source made the active and inactive calls. The calls are words filed in the database; no cut-off is given here.

Tests used:
Homo sapiens [1] = species: Homo sapiens; assay: Binding affinity to [15N]-labelled cNTnC (1 to 90 residues)- cTnI (136 to 163 residues) A-Cys chimeric protein harboring C35S/C84S double mutant (unknown origin) assessed as NMR fast exchange by 2D 1H, 15N HSQC NMR spectroscopy analysis
[2] = Inhibition of actomyosin ATPase activity in bovine cardiac myofibrils assessed as reduction in inorganic phosphate release using ATP as substrate preincubated for 30 mins in presence of pCa 4.5 followed by substrate addition by malachite green based assay; set-up: species or system Bos taurus
Bos taurus [3] = species: Bos taurus; assay: Inhibition of actomyosin ATPase activity in bovine cardiac myofibrils assessed as reduction in inorganic phosphate release using ATP as substrate preincubated for 30 mins in presence of pCa 6 followed by substrate addition by malachite green based assay
[4] = Aqueous solubility of the compound by fluorescence spectroscopy analysis; type: physicochemical
Bos taurus [5] = species: Bos taurus; assay: Inhibition of actomyosin ATPase activity in bovine cardiac myofibrils assessed as reduction in inorganic phosphate release using ATP as substrate preincubated for 30 mins in presence of pCa 9 followed by substrate addition by malachite green based assay
[6] = Binding affinity to calcium saturated His tagged cNTnC (1 to 90 residues)- cTnI (136 to 163 residues) C35S mutant chimeric protein (unknown origin) assessed as dissociation constant by flourescence spectroscopy analysis; set-up: species or system Homo sapiens
[7] = Binding affinity to calcium saturated His-tagged cNTnC (1 to 90 residues)- cTnI (136 to 163 residues) A-Cys chimeric protein harboring C35S/C84S double mutant (unknown origin) assessed as dissociation constant by flourescence spectroscopy analysis; set-up: species or system Homo sapiens
[8] = Aqueous solubility of the compound by 1D H-NMR spectroscopy analysis; type: physicochemical
[9] = Covalent binding affinity to [15N]-labelled cNTnC (1 to 90 residues)- cTnI (136 to 163 residues) C35S mutant chimeric protein (unknown origin) expressed in Escherichia coli BL21 (DE3) assessed as dissociation constant by 2D 1H, 15N HSQC NMR spectroscopy analysis; set-up: species or system Homo sapiens
Homo sapiens [10] = species: Homo sapiens; assay: Binding affinity to BME-bound [15N]-labelled cNTnC (1 to 90 residues)- cTnI (136 to 163 residues) C35S mutant chimeric protein (unknown origin) expressed in Escherichia coli BL21 (DE3) up to 60 uM in the presence of DTT by 2D 1H, 15N HSQC NMR spectroscopy analysis; conditions: dose microM <=60
[11] = Stability of the compound in NMR buffer at 50 uM in the absence of DTT measured after 40 hrs at 30 degC by 1D H-NMR analysis; type: physicochemical
[12] = Reactivity with dithiothreitol in NMR buffer at 50 uM measured up to 24 hrs by 1D H-NMR analysis; conditions: time hrs <=24
Homo sapiens [13] = species: Homo sapiens; assay: Binding affinity to BME-bound [15N]-labelled cNTnC (1 to 90 residues)- cTnI (136 to 163 residues) C35S mutant chimeric protein (unknown origin) expressed in Escherichia coli BL21 (DE3) up to 60 uM by 2D 1H, 15N HSQC NMR spectroscopy analysis; conditions: dose microM <=60
[14] = Drug degradation assessed as new spectra with MW of 202 Da formation at 40 uM measured after incubation of 8-month old compound with [15N]-labelled cNTnC (1 to 90 residues)-cTnI (136 to 163 residues) C35S mutant chimeric protein (unknown origin) by 2D 1H, 15N HSQC NMR spectroscopy analysis; type: ADME
[15] = Drug degradation assessed as new spectra with MW of 404 Da formation at 40 uM measured after incubation of 8-month old compound with [15N]-labelled cNTnC (1 to 90 residues)-cTnI (136 to 163 residues) C35S mutant chimeric protein (unknown origin) by 2D 1H, 15N HSQC NMR spectroscopy analysis; type: ADME

- Activity (Homo sapiens [1]): inactive
- IC50 [2]: 11 nM
- inhibition (Bos taurus [3]): Active
- solubility [4]: < 50 µM
- inhibition (Bos taurus [5]): inactive
- Kd [6]: 56 nM
- Kd [7]: 45 nM
- solubility [8]: < 50 µM
- Activity (Homo sapiens [10]): Active
- Stability [11]: Stable
- Activity [12]: Active
- Activity (Homo sapiens [13]): inactive
- Drug degradation [14]: Active
- Drug degradation [15]: Active
SMILES: N#C/C(=C\c1ccc(N(c2ccccc2)c2ccccc2)cc1)C(=O)O
- Kd [9]: < 500 nM
